According to PMC12401175, “Construction of hyperthermostable D‐allulose 3‐epimerase from Arthrobacter globiformis M30 using the sequence information from Arthrobacter psychrolactophilus” (FEBS Open Bio, 2025):
Read-outs that look alike come from different tables or passages of the source.

Columns and labels:
AgDAE [1] = biological target: T1, AgDAE (Arthrobacter globiformis, UniProt A0A1L7NQ96); type: biochemical; conditions: 50 °C, 50 mM sodium phosphate pH 8.0, 2 mM MgSO4; read-out: Allulose → Fructose / K m
T1 sequence (A0A1L7NQ96 1-289): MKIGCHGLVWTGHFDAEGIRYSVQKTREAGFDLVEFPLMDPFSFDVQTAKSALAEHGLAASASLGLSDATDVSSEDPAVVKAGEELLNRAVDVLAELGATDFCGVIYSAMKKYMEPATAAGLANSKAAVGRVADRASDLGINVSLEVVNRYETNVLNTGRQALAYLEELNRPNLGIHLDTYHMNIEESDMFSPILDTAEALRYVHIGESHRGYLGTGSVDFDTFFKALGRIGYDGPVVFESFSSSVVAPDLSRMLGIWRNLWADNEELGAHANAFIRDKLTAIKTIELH

AgDAE [2] = biological target: T1, AgDAE; type: biochemical; conditions: 50 °C, 50 mM sodium phosphate pH 8.0, 2 mM MgSO4; read-out: Fructose → Allulose / K m

Structure (SMILES) | Km (AgDAE [1]) | Km (AgDAE [2])
OCC1(O)OC[C@@H](O)[C@@H](O)[C@H]1O (stereo partly drawn) [D-allulose] | 11.7 ± 0.7 mM | 
OCC1(O)OC[C@@H](O)[C@@H](O)[C@@H]1O (stereo partly drawn) [D-fructose] |  | 21.1 ± 5.6 mM
